Results published in ChEMBL document CHEMBL4152377, “Design and Activity of Specific Hypoxia-Inducible Factor-2α (HIF-2α) Inhibitors for the Treatment of Clear Cell Renal Cell Carcinoma: Discovery of Clinical Candidate ( S)-3-((2,2-Difluoro-1-hydroxy-7-(methylsulfonyl)-2,3-dihydro-1 H-inden-4-yl)oxy)-5-fluorobenzonitrile (PT2385)” (J Med Chem, 2018).
In brackets after ≈: the same amount, converted by molar mass. Activity calls are given as the source filed them. The calls are words filed in the database; no cut-off is given here.

Columns and labels:
Mus musculus [1] = test: Toxicity in SCID/Biege mouse xenografted with human 786-O cells assessed as mortality at 10 mg/kg, po bid for 21 days; format: organism-based; conditions: in vivo, 504 h
[2] = Thermodynamic solubility of the compound in phosphate buffer at pH 7.4 after 24 hrs by HPLC-UV analysis; format: physicochemical; conditions: read-out: Therm_solubility
Cytochrome P450 2B6 = biological target: T1, Cytochrome P450 2B6 (Homo sapiens, UniProt P20813); test: Inhibition of CYP2B6 in human liver microsomes using bupropion as substrate after 10 mins in presence of NADPH by LC-MS/MS analysis; format: ADME
T1 sequence (P20813 whole entry): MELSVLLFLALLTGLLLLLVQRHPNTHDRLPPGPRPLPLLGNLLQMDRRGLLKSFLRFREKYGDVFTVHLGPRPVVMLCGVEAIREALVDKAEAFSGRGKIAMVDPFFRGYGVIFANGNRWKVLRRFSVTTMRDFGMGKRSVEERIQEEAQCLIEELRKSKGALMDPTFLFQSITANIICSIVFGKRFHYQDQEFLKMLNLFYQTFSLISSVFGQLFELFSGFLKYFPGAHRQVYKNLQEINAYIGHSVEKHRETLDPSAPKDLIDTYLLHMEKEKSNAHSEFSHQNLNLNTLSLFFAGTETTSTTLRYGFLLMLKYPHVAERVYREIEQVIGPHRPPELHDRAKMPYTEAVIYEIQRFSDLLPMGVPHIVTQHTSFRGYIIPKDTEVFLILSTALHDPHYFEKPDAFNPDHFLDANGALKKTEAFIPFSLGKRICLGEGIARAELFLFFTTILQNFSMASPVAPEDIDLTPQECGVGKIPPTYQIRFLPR

[3] = Volume of distribution at steady state in Sprague-Dawley rat at 3 mg/kg, iv by UPLC analysis; format: ADME, organism-based; conditions: in vivo, read-out: Vdss
786-0 [4] = test: In vivo inhibition of HIF-2alpha in SCID/Biege mouse xenografted with human 786-O cells assessed as reduction in tumor derived VEGFA protein levels at 10 mg/kg, po bid for 3 days and measured after 12 hrs post last dose by ELISA; format: functional, organism-based
Cytochrome P450 2D6 = Cytochrome P450 2D6 (Homo sapiens, UniProt P10635); test: Inhibition of CYP2D6 in human liver microsomes using dextromethorphan as substrate after 10 mins in presence of NADPH by LC-MS/MS analysis; format: ADME
[5] = Clearance in Sprague-Dawley rat at 3 mg/kg, iv by UPLC analysis; format: ADME, organism-based; conditions: in vivo
Mus musculus [6] = test: Minimum drug level in SCID/Biege mouse xenografted with human 786-O cells at 10 mg/kg, po bid for 3 days and measured after 12 hrs post last dose by LC-MS/MS analysis; format: ADME, organism-based; conditions: in vivo
[7] = Plasma concentration in mouse after 12 hrs; format: ADME, cell-free
786-0 [8] = test: Antitumor activity against human 786-O cells xenografted in SCID/Biege mouse assessed as tumor regression at 10 mg/kg, po bid for 21 days; format: functional, organism-based
Cytochrome P450 2C9 = Cytochrome P450 2C9 (Homo sapiens, UniProt P11712); test: Inhibition of CYP2C9 in human liver microsomes using diclofenac as substrate after 10 mins in presence of NADPH by LC-MS/MS analysis; format: ADME
[9] = Protein binding in human plasma at 10 uM after 4 hrs by LC-MS/MS analysis; format: ADME, cell-free; conditions: read-out: PPB (converted)
Canis familiaris = test: Oral bioavailability in Beagle dog at 10 mg/kg administered via gavage by UPLC analysis; format: ADME, organism-based, Canis lupus familiaris; conditions: in vivo
Mus musculus [10] = test: Toxicity in SCID/Biege mouse xenografted with human 786-O cells assessed as effect on body weight at 10 mg/kg, po bid for 21 days; format: organism-based; conditions: in vivo, 504 h
[11] = Intrinsic clearance in human liver microsomes at 1 uM measured up to 30 mins by LC-MS/MS analysis; format: ADME, microsome; conditions: read-out: CLH
[12] = Clearance in CD1 mouse at 3 mg/kg, iv by UPLC analysis; format: ADME, organism-based; conditions: in vivo
[13] = Oral bioavailability in CD1 mouse at 10 mg/kg by UPLC analysis; format: ADME, organism-based; conditions: in vivo
[14] = AUCt in Sprague-Dawley rat at 10 mg/kg, po via gavage by UPLC analysis; format: ADME, organism-based; conditions: in vivo
[15] = Protein binding in rat plasma at 10 uM after 4 hrs by LC-MS/MS analysis; format: ADME, cell-free; conditions: read-out: PPB (converted)
[16] = Volume of distribution at steady state in Beagle dog at 3 mg/kg, iv by UPLC analysis; format: ADME, organism-based, Canis lupus familiaris; conditions: in vivo, read-out: Vdss
[17] = Intrinsic clearance in mouse liver microsomes at 1 uM measured up to 30 mins by LC-MS/MS analysis; format: ADME, microsome; conditions: read-out: CLH
[18] = Intrinsic clearance in dog liver microsomes at 1 uM measured up to 30 mins by LC-MS/MS analysis; format: ADME, Canis lupus familiaris, microsome; conditions: read-out: CLH
Cytochrome P450 2C8 = biological target: T2, Cytochrome P450 2C8 (Homo sapiens, UniProt P10632); test: Inhibition of CYP2C8 in human liver microsomes using amodiaquine as substrate after 10 mins in presence of NADPH by LC-MS/MS analysis; format: ADME
T2 sequence (P10632 whole entry): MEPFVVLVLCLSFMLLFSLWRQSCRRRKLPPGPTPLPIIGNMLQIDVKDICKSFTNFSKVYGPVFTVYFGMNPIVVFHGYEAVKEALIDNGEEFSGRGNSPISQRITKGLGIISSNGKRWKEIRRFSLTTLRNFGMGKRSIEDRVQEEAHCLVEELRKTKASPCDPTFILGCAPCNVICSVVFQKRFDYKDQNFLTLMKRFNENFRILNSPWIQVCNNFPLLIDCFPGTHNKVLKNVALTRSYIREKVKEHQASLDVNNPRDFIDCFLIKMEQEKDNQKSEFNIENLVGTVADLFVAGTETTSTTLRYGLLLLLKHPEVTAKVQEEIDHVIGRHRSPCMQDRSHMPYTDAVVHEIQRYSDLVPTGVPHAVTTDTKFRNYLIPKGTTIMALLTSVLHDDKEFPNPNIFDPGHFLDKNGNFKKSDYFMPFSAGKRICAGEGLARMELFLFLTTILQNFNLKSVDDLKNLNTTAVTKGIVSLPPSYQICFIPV

[19] = Intrinsic clearance in rat liver microsomes at 1 uM measured up to 30 mins by LC-MS/MS analysis; format: ADME, microsome; conditions: read-out: CLH
[20] = Half life in Beagle dog at 10 mg/kg, po via gavage by UPLC analysis; format: ADME, organism-based, Canis lupus familiaris; conditions: in vivo
Mus musculus [21] = test: In vivo inhibition of HIF-2alpha in SCID/Biege mouse xenografted with human 786-O cells assessed as reduction in CCND1 mRNA levels at 10 mg/kg, po bid for 3 days and measured after 12 hrs post last dose by qRT-PCR analysis; format: functional, organism-based
[22] = AUCt in CD1 mouse at 10 mg/kg, po by UPLC analysis; format: ADME, organism-based; conditions: in vivo
Cytochrome P450 3A4 = Cytochrome P450 3A4 (Homo sapiens, UniProt P08684); test: Inhibition of CYP3A4 in human liver microsomes using midazolam as substrate after 10 mins in presence of NADPH by LC-MS/MS analysis; format: ADME
[23] = Protein binding in mouse plasma at 10 uM after 4 hrs by LC-MS/MS analysis; format: ADME, cell-free; conditions: read-out: PPB (converted)
[24] = Volume of distribution at steady state in CD1 mouse at 3 mg/kg, iv by UPLC analysis; format: ADME, organism-based; conditions: in vivo, read-out: Vdss

Chain of Cytochrome P450 2C9 (P11712 whole entry): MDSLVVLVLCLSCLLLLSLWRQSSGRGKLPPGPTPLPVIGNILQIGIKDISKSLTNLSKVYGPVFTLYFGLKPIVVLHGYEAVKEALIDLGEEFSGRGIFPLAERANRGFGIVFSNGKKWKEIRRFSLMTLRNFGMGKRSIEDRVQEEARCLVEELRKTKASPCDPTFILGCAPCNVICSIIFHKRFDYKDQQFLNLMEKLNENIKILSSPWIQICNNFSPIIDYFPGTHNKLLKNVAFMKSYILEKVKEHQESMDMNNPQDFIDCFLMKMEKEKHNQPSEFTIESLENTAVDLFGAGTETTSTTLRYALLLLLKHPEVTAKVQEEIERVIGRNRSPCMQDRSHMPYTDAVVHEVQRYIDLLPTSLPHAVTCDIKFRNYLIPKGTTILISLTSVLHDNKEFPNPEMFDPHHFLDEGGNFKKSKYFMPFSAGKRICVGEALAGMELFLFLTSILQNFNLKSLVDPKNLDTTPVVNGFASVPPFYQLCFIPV
Chain of Cytochrome P450 3A4 (P08684 whole entry): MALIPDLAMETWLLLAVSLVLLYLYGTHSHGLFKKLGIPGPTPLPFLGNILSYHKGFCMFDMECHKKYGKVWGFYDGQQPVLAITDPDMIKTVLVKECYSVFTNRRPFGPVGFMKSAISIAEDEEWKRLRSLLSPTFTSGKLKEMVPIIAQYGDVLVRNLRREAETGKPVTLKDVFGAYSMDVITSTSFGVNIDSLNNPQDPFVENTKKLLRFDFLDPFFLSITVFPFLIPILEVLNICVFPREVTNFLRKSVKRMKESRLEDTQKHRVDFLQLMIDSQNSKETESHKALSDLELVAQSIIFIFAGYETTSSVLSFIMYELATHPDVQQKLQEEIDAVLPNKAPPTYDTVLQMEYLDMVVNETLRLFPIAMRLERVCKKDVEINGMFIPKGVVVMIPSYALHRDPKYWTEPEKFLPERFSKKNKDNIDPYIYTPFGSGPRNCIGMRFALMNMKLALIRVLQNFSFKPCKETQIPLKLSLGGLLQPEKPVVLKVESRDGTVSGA
Chain of Cytochrome P450 2D6 (P10635 whole entry): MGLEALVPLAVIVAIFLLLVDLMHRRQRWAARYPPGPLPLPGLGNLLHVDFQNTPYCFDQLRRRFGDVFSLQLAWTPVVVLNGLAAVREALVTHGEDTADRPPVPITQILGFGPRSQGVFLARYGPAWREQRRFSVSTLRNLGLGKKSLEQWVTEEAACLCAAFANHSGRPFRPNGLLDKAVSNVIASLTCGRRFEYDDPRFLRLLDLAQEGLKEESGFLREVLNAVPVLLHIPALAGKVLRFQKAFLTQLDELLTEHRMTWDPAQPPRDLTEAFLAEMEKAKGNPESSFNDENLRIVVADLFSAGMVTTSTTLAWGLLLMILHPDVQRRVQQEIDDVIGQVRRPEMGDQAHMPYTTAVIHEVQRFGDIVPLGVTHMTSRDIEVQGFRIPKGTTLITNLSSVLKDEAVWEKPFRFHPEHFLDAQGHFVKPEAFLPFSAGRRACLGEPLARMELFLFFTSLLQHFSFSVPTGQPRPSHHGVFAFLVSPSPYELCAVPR

Compound | Activity (Mus musculus [1]) | solubility thermodynamic at 24 h [2] | IC50 (Cytochrome P450 2B6) | Vd [3] | inhibition (786-0 [4]) | IC50 (Cytochrome P450 2D6) | clearance [5] | Drug uptake (Mus musculus [6]) | concentration at 12 h [7] | Activity (786-0 [8]) | IC50 (Cytochrome P450 2C9) | fraction unbound at 4 h, 10 µM [9] | F (Canis familiaris) | Activity (Mus musculus [10]) | CLint scaled at 1 µM [11] | clearance [12] | bioavailability [13] | AUC(0-t) [14] | fraction unbound at 4 h, 10 µM [15] | Vd [16] | other results
CS(=O)(=O)c1ccc(Oc2cc(F)cc(C#N)c2)c2c1[C@H](O)C(F)(F)C2 | Non-Toxic | 59 µM (≈ 22.6 µg/mL) | > 50 µM | 6.24 L/kg | Active | > 50 µM | 34.6 mL/min/kg | Active | 460 nM | Active | 23 µM | 0.21 | 87% | Non-Toxic | 4.7 mL/min/kg | 29.2 mL/min/kg | 110% | 5.12 µM·h | 0.29 | 8.6 L/kg | CLint scaled at 1 µM [17]: 19.9 mL/min/kg; CLint scaled at 1 µM [18]: < 5 mL/min/kg; IC50 (Cytochrome P450 2C8): > 50 µM; CLint scaled at 1 µM [19]: 22.6 mL/min/kg; half-life [20]: 660 min; inhibition (Mus musculus [21]): Active; AUC(0-t) [22]: 16.4 µM·h; IC50 (Cytochrome P450 3A4): > 50 µM; fraction unbound at 4 h, 10 µM [23]: 0.26; Vd [24]: 7 L/kg
N#Cc1cc(F)cc(Oc2ccc3c(c2C(F)F)[C@@H](O)C(F)(F)S3(=O)=O)c1 | Non-Toxic | 126 µM (≈ 51.1 µg/mL) | > 50 µM | 3.5 L/kg | Active | > 50 µM | 27.2 mL/min/kg | Active | 220 nM | Active | 15.7 µM | 0.37 | 72% | Non-Toxic | < 3 mL/min/kg | 70.6 mL/min/kg | 110% | 5.49 µM·h | 0.15 | 3.1 L/kg | CLint scaled at 1 µM [17]: 5.9 mL/min/kg; CLint scaled at 1 µM [18]: < 5 mL/min/kg; IC50 (Cytochrome P450 2C8): > 50 µM; CLint scaled at 1 µM [19]: 9.1 mL/min/kg; half-life [20]: 402 min; inhibition (Mus musculus [21]): Active; AUC(0-t) [22]: 6.1 µM·h; IC50 (Cytochrome P450 3A4): 13.3 µM; fraction unbound at 4 h, 10 µM [23]: 0.11; Vd [24]: 9.5 L/kg
